For experiment [1], the system named is FPB antiserum (R4097, bleed I3). Put plainly: Competitive ELISA for specificity of the FPB antiserum (competitor in solution vs surface-bound synthetic human FPB). It counts as binding, rabbit. The following applies: for cross-reactivity, defined as IC50 of FPB divided by IC50 of competitor times 100: FPB antiserum, competitive ELISA; for IC50: FPB antiserum 1:2500, competitive ELISA, read-out: IC50, competition for antibody binding to surface-bound synthetic human FPB; for competition / cross-reaction with FPB antiserum (in words): competitor in solution vs surface-bound synthetic human FPB. The method, then:
A competitive ELISA was developed to evaluate the specificity of the FPB antiserum. Unless otherwise noted, all steps were performed at room temperature, and the microplates were washed three times in between each step with 0.02 M NaH2PO4, 0.15 M NaCl, 1 mM EDTA, pH 7.4 (PNE) containing 0.1% tween-20. Microplate wells were first coated with synthetic human FPB ([…] in 0.2 M NaHCO3, […]) overnight at 4 C., and then “blocked” with 1% BSA in PNE (PNEA) for one hour. Meanwhile, serial dilutions of each competitor were prepared. The following competitors, all of human origin except where noted, were tested: native FPB (human and canine), synthetic FPB, synthetic des-arg FPB, synthetic fibrinopeptide A, and purified fibrinogen. […] of each competitor dilution were pre-incubated separately with […] of FPB antiserum (1:2500) in polypropylene microfuge tubes for 90 min. Dilutions of the competitors and of antiserum were prepared in dilution buffer (PNEA containing 0.1% tween-20). At the end of the pre-incubation period, 100 mL of each mixture were applied to duplicate FPB-coated wells and incubated for 90 min. After washing, 100 mL of peroxidase-conjugated goat anti-rabbit IgG detecting antibody (1:5000 in dilution buffer) were added to each well and incubated for one hour. After a final wash, each well was developed with 100 ml of OPD substrate solution for exactly five minutes. The reaction was stopped by addition of an equal volume of 3 N H2SO4, and the absorbance (490 nm) of each well was measured in the microplate reader.
A competitive ELISA was developed for determination of the FPB concentration in plasma and urine ultrafiltrates. Unless otherwise noted, all steps were performed at room temperature, and the microplates were washed three times in between each step with 0.02 M NaH2PO4, 0.15 M NaCl, 1 mM EDTA, pH 7.4 (PNE) containing 0.1% tween-20. Microplate wells were first coated with synthetic FPB (2 μg/ml in 0.2 M NaHCO3, 100 μl/well) overnight at 4 C., and then “blocked” with 1% BSA in PNE (PNEA) for one hour. Meanwhile, 20 μl of ultrafiltered samples and synthetic FPB standards (1.56-100 ng/ml) were pre-incubated separately with 200 μl of FPB antiserum (1:2500) in polypropylene microfuge tubes for one hour. Dilutions of the FPB standard and antiserum were prepared in dilution buffer (PNEA containing 0.1% tween-20). At the end of the pre-incubation period, 100 μl of each mixture were applied to duplicate FPB-coated wells and incubated for one hour. After washing, 100 μl of peroxidase-conjugated goat anti-rabbit IgG detecting antibody (1:5000 in dilution buffer) were added to each well and incubated for one hour. After a final wash, each well was developed with 100 μl of OPD substrate solution for exactly five minutes. The reaction was stopped by addition of an equal volume of 3 N H2SO4, and the absorbance (490 nm) of each well was measured in a microplate reader. The concentration of FPB in the samples was interpolated from a standard curve obtained by plotting the FPB concentration of each standard versus the corresponding absorbance. If sample values exceeded the upper limit of the standard curve, those samples were re-tested after appropriate dilution with dilution buffer. The intra- and inter-assay coefficients of variation for the FPB assay were 14.1% and 5.0%, respectively. The competitive ELISA was also used to assess the cross-reactivity of the FPB antiserum with human fibrinogen, fibrinopeptide A (FPA), des-arg FPB, and canine FPB.

Experiment [2] concerns experimentally induced thrombi. Put plainly: Canine experimental thrombosis model, FPBtot in plasma and urine (Example 2). It is filed as in vivo, dog. The following applies: heparin bolus 300 units/kg, infusion 90 units/kg/hr after embolization, three dogs. The source says: Adult mongrel dogs were anesthetized and their native fibrinogen depleted. After the ancrod has been eliminated from the circulation, during a time when the native fibrinogen activity is minimal, experimental thrombi are induced as previously described (Morris et al. 1997b). The dogs are anesthetized with halothane, intubated and mechanically ventilated to maintain arterial blood gases within normal limits. […] After this, they were transfused with 6 grams of purified human fibrinogen in normal saline to achieve a fibrinogen level of at least 300 mg/dl. Under these conditions, fibrinogen levels were maintained at >200 mg/dl throughout the study period.
Double balloon catheters were advanced via hind-leg saphenous veins to the femoral veins on each side. The balloons were then inflated, creating a 5 ml sealed chamber within the veins. […]
Blood and urine samples were collected into titrated tubes (containing protease inhibitors) at baseline, after defibrinogenation, at regular intervals after thrombus induction, and after anticoagulation. […] All samples were stored at […] until analyzed. FPBtot levels in urine and ultrafiltrated plasma are determined by immunoassay as described above.
The means and standard deviations of the FPBtot levels, as determined by immunoassay, associated with each time point are calculated. […]

Experiment [3] is described as follows: Urinary FPBtot before and during anticoagulation in VTE patients (Example 6). It counts as in vivo, human. The text has this: Consecutive patients referred to the VTE service in whom the diagnosis of DVT and/or PE is confirmed (based on the criteria described above) are enrolled. Prior to therapy, blood and urine samples are collected for measurement of FPBtot (and other FPB measurements described above). Patients are then be treated with intravenous heparin (80 units/kg bolus, 18 units/kg/hr infusion), with the dose adjusted per protocol to keep aPTT 1.5-2.5 times the control values. As soon as steady-state “therapeutic doses” of heparin are maintained, blood and urine are collected again and the same parameters are measured. In addition, plasma aPTT, anti-Xa and anti-thrombin measurements are made as previously described (Morris et al. 1998).
For each patient, the difference between urinary and plasma FPBtot levels, measured before and after anticoagulation, is recorded. The mean reduction in FPBtot levels after anticoagulation is calculated. The required sample size is estimated based on the preliminary data described below: The mean (+/−SD) decrease in urinary FPBtot during anticoagulation was 60 ng/ml (+/−85.7 ng/ml). Assuming similar standard deviations for the VTE patients to be studied, thirty-seven pairs of samples are required in order to detect a 50% decrease in the levels after anticoagulation, with an alpha of 0.01 and a power of 95%.

In experiment [4] the test system is femoral vein thrombi / pulmonary emboli. Put plainly: Canine fibrinogen-replacement thrombosis and pulmonary embolism model, FPB in plasma and urine (Example 3). It is filed as in vivo, dog. The following applies: n=3. The protocol:
A competitive ELISA was developed for determination of the FPB concentration in plasma and urine ultrafiltrates. Unless otherwise noted, all steps were performed at room temperature, and the microplates were washed three times in between each step with 0.02 M NaH2PO4, 0.15 M NaCl, 1 mM EDTA, pH 7.4 (PNE) containing 0.1% tween-20. Microplate wells were first coated with synthetic FPB (2 μg/ml in 0.2 M NaHCO3, 100 μl/well) overnight at 4 C., and then “blocked” with 1% BSA in PNE (PNEA) for one hour. Meanwhile, 20 μl of ultrafiltered samples and synthetic FPB standards (1.56-100 ng/ml) were pre-incubated separately with 200 μl of FPB antiserum (1:2500) in polypropylene microfuge tubes for one hour. Dilutions of the FPB standard and antiserum were prepared in dilution buffer (PNEA containing 0.1% tween-20). At the end of the pre-incubation period, 100 μl of each mixture were applied to duplicate FPB-coated wells and incubated for one hour. […] The reaction was stopped by addition of an equal volume of 3 N H2SO4, and the absorbance (490 nm) of each well was measured in a microplate reader. The concentration of FPB in the samples was interpolated from a standard curve obtained by plotting the FPB concentration of each standard versus the corresponding absorbance. […]

Experimental findings from US6673561B1, “Diagnostic test for thrombotic or thromboembolic disease” (Regents of the University of California, priority 1999, dated 2004) are described below.

“Also recorded” adds a separate entry of the source.

For “FPA: short amino acid sequence at the amino terminus of the alpha chain of fibrinogen (ADSGEGDFLAEGGGVR)”, in experiment [1], the “cross-reactivity, defined as IC50 of FPB divided by IC50 of competitor times 100” value was less than 0.1%.

One may read the IC50 as the concentration that gives 50% inhibition. As for “QGVNDNEEGFFSA [des-arg FPB, degradation product formed as FPB is exposed to carboxypeptidases in normal plasma]”, in experiment [1], the IC50 worked out at 8.9 nM and the “cross-reactivity, defined as IC50 of FPB divided by IC50 of competitor times 100” value is given as 75%.

In the case of “QGVNDNEEGFFSAR [FPB, human fibrinopeptide B, cleaved by thrombin from the beta-chains of fibrin I]”, the IC50 in experiment [1] amounted to 6.7 nM.

With “fibrinogen: purified human fibrinogen, used as ELISA competitor and for transfusion of dogs”, in experiment [1], the IC50 is 2.3 nM and the “competition / cross-reaction with FPB antiserum (in words)” value (from here on “competition / cross-reaction”) is recorded as “significant cross-reaction; also recorded: significant cross-reactivity”.

Turning to heparin, the “thrombosis after excess heparin” value in experiment [2] was “thrombosis is halted”. For the same substance, the “urinary levels of FPB during anticoagulation (in words)” value in experiment [3] (all but one patient) is listed as “significantly decreased”. Besides, the “mean decrease in urinary FPBtot during anticoagulation” value in experiment [3] (preliminary data, mean (+/-SD)) is 60 ng/mL. In addition, the “rise in plasma FPB following embolization” value in experiment [4] (heparin iv 300 units/kg bolus, 90 units/kg/hr, one hour prior to embolization) is on record as “completely suppressed”. Besides, the “initial peak of total urinary FPB” value in experiment [4] (heparin iv one hour prior to embolization) is on record as “suppressed”.

Take “native canine FPB: FPB derived from purified canine fibrinogen clotted with thrombin, ultrafiltrate (HYYDDTDEEERIVSTVDAR)”: the “competition / cross-reaction” value in experiment [1] is listed as “did not compete”.

For the substance “native human FPB: FPB derived from purified human fibrinogen clotted with thrombin, ultrafiltrate (QGVNDNEEGFFSAR)”, the “competition / cross-reaction” value in experiment [1] was “effective competitive inhibitor”.
